Here are results for 34 molecules from patent US20080051387A1, “TETRAHYDROPYRIDO[3,4-D]PYRIMIDINES AND RELATED ANALOGUES” (priority 2006, published 2008).

The target of this test is T1, chimeric human H3 receptor (Homo sapiens, UniProt Q9Y5N1).
T1 construct: rat Galpha-i2 (Gnai2, rat); made in house; host or cells: Sf9 insect cells (baculovirus); P2 membranes
Put plainly: Chimeric human H3 receptor screening GTP binding assay (inhibition of histamine-stimulated GTP-gamma35S binding, Example 8). Format: biochemical. The note with it: symbol ! in Ki; test compound 4 μM, 1 μM histamine; read-out: percent inhibition of agonist-induced GTP-gammaS binding to H3. The procedure, abridged:
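Compound tested at 4 μM against 1 μM histamine stimulation; 125 pM GTP-gamma35S binding measured by filtration and scintillation after 60 min at room temperature. Membranes from Sf9 cells expressing chimeric human H3 plus G-protein subunits, in Tris pH 7.4/NaCl/MgCl2/GDP buffer; values are % inhibition after nonspecific subtraction.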
Background: Binding of GTPγS marks nucleotide exchange on a G protein.

T1 sequence (Q9Y5N1 with tags, fused parts or gaps): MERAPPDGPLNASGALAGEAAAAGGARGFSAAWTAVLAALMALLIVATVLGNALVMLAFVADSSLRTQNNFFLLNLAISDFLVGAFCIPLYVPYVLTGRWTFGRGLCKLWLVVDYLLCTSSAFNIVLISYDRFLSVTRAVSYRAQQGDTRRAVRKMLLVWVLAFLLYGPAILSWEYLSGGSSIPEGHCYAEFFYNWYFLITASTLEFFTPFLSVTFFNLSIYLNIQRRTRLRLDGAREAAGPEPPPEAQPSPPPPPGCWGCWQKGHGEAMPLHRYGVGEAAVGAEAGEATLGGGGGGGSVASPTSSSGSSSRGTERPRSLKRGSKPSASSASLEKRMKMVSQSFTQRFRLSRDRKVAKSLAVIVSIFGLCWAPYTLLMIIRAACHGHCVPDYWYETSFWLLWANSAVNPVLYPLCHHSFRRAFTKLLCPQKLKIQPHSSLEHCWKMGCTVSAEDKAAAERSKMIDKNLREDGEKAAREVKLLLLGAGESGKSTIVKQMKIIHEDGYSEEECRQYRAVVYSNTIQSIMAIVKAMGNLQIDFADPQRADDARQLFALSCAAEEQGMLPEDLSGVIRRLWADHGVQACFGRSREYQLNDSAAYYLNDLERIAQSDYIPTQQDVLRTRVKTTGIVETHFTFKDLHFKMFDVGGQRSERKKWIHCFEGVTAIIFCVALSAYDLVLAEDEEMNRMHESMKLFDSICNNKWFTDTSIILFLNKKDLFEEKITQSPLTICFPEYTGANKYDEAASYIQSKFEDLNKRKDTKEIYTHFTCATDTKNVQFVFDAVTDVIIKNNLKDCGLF

Usually inhibition stands for the share of the control response that was lost under treatment. Turning to `CC(c1ccc2ccccc2n1)N1CCc2c(ncnc2N2CCN(C3CCC3)CC2)C1` (stereo not shown) [Compound 130, 4-(4-cyclobutylpiperazin-1-yl)-7-(1-quinolin-2-ylethyl)-5,6,7,8-tetrahydropyrido[3,4-d]pyrimidine], the inhibition at 4 µM was ≥ 90%.
The value for `COc1cccc(C(C)N2CCc3c(ncnc3N3CCN(C4CCC4)CC3)C2)c1OC` (stereo not shown) [Compound 131, 4-(4-cyclobutylpiperazin-1-yl)-7-[1-(2,3-dimethoxyphenyl)ethyl]-5,6,7,8-tetrahydropyrido[3,4-d]pyrimidine] was ≥ 90%; that for `COc1ccc(OC)c(C(C)N2CCc3c(ncnc3N3CCN(C4CCC4)CC3)C2)c1` (stereo not shown) [Compound 132, 4-(4-cyclobutylpiperazin-1-yl)-7-[1-(2,5-dimethoxyphenyl)ethyl]-5,6,7,8-tetrahydropyrido[3,4-d]pyrimidine] was ≥ 90%.
The value for `CC(c1ccc(N2CCCC2)nc1)N1CCc2c(ncnc2N2CCN(C3CCC3)CC2)C1` (stereo not shown) [Compound 133, 4-(4-cyclobutylpiperazin-1-yl)-7-[1-(6-pyrrolidin-1-ylpyridin-3-yl)ethyl]-5,6,7,8-tetrahydropyrido[3,4-d]pyrimidine] was ≥ 90%; that for `Cc1c(F)cccc1C(C)N1CCc2c(ncnc2N2CCN(C3CCC3)CC2)C1` (stereo not shown) [Compound 134, 4-(4-cyclobutylpiperazin-1-yl)-7-[1-(3-fluoro-2-methylphenyl)ethyl]-5,6,7,8-tetrahydropyrido[3,4-d]pyrimidine] was ≥ 90%; that for `CC(c1ccccc1Cl)N1CCc2c(ncnc2N2CCN(C3CCC3)CC2)C1` (stereo not shown) [Compound 135, 7-[1-(2-chlorophenyl)ethyl]-4-(4-cyclobutylpiperazin-1-yl)-5,6,7,8-tetrahydropyrido[3,4-d]pyrimidine] was ≥ 90%.
Turning to `CC(c1ccc(Cl)cc1Cl)N1CCc2c(ncnc2N2CCN(C3CCC3)CC2)C1` (stereo not shown) [Compound 136, 4-(4-cyclobutylpiperazin-1-yl)-7-[1-(2,4-dichlorophenyl)ethyl]-5,6,7,8-tetrahydropyrido[3,4-d]pyrimidine], the inhibition at 4 µM was ≥ 90%.
The same measure for `CC(c1ccc(N2CCCC2)cc1)N1CCc2c(ncnc2N2CCN(C3CCC3)CC2)C1` (stereo not shown) [Compound 137, 4-(4-cyclobutylpiperazin-1-yl)-7-[1-(4-pyrrolidin-1-ylphenyl)ethyl]-5,6,7,8-tetrahydropyrido[3,4-d]pyrimidine]: ≥ 90%; for `FC(F)(F)c1ccc(N2CCc3c(ncnc3N3CCN(C4CCC4)CC3)C2)nc1` [Compound 138, 4-(4-cyclobutylpiperazin-1-yl)-7-[5-(trifluoromethyl)pyridin-2-yl]-5,6,7,8-tetrahydropyrido[3,4-d]pyrimidine]: ≥ 90%.
The same measure for `COC(=O)c1ccc(CN2CCc3c(ncnc3N3CCN(C4CCC4)CC3)C2)cc1` [Compound 139, methyl 4-{[4-(4-cyclobutylpiperazin-1-yl)-5,8-dihydropyrido[3,4-d]pyrimidin-7(6H)-yl]methyl}benzoate]: ≥ 90%; for `CNC(=O)c1ccc(CN2CCc3c(ncnc3N3CCN(C4CCC4)CC3)C2)cc1` [Compound 140, 4-{[4-(4-cyclobutylpiperazin-1-yl)-5,8-dihydropyrido[3,4-d]pyrimidin-7(6H)-yl]methyl}-N-methylbenzamide]: ≥ 90%.
Take `c1ccc(CN2CCc3ncnc(N4CCN(C5CCCC5)CC4)c3C2)cc1` [Compound 141, 6-benzyl-4-(4-cyclopentylpiperazin-1-yl)-5,6,7,8-tetrahydropyrido[4,3-d]pyrimidine]: the inhibition at 4 µM is ≥ 90%.
With `Fc1ccccc1CN1CCc2ncnc(N3CCN(C4CCC4)CC3)c2CC1` [Compound 145, 4-(4-cyclobutylpiperazin-1-yl)-7-(2-fluorobenzyl)-6,7,8,9-tetrahydro-5H-pyrimido[4,5-d]azepine], the inhibition at 4 µM is ≥ 90%.
The value for `Fc1cccc(CN2CCc3ncnc(N4CCN(C5CCC5)CC4)c3CC2)c1` [Compound 146, 4-(4-cyclobutylpiperazin-1-yl)-7-(3-fluorobenzyl)-6,7,8,9-tetrahydro-5H-pyrimido[4,5-d]azepine] was ≥ 90%.
As to `Fc1ccc(CN2CCc3ncnc(N4CCN(C5CCC5)CC4)c3CC2)cc1` [Compound 147, 4-(4-cyclobutylpiperazin-1-yl)-7-(4-fluorobenzyl)-6,7,8,9-tetrahydro-5H-pyrimido[4,5-d]azepine], the inhibition at 4 µM is ≥ 90%.
The same measure for `Cc1cccc(CN2CCc3ncnc(N4CCN(C5CCC5)CC4)c3CC2)c1` [Compound 148, 4-(4-cyclobutylpiperazin-1-yl)-7-(3-methylbenzyl)-6,7,8,9-tetrahydro-5H-pyrimido[4,5-d]azepine]: ≥ 90%; for `Cc1ccc(CN2CCc3ncnc(N4CCN(C5CCC5)CC4)c3CC2)cc1` [Compound 149, 4-(4-cyclobutylpiperazin-1-yl)-7-(4-methylbenzyl)-6,7,8,9-tetrahydro-5H-pyrimido[4,5-d]azepine]: ≥ 90%; for `Cn1ccnc1CN1CCc2ncnc(N3CCN(C4CCC4)CC3)c2CC1` [Compound 150, 4-(4-cyclobutylpiperazin-1-yl)-7-[(1-methyl-1H-imidazol-2-yl)methyl]-6,7,8,9-tetrahydro-5H-pyrimido[4,5-d]azepine]: ≥ 90%.
Turning to `c1ccc2c(CN3CCc4ncnc(N5CCN(C6CCC6)CC5)c4CC3)ccnc2c1` [Compound 151, 4-(4-cyclobutylpiperazin-1-yl)-7-(quinolin-4-ylmethyl)-6,7,8,9-tetrahydro-5H-pyrimido[4,5-d]azepine], the inhibition at 4 µM was ≥ 90%.
The value for `c1ccc2ncc(CN3CCc4ncnc(N5CCN(C6CCC6)CC5)c4CC3)cc2c1` [Compound 152, 4-(4-cyclobutylpiperazin-1-yl)-7-(quinolin-3-ylmethyl)-6,7,8,9-tetrahydro-5H-pyrimido[4,5-d]azepine] was ≥ 90%.
The same measure for `Cc1cccc(CN2CCc3ncnc(N4CCN(C5CCC5)CC4)c3CC2)n1` [Compound 153, 4-(4-cyclobutylpiperazin-1-yl)-7-[(6-methylpyridin-2-yl)methyl]-6,7,8,9-tetrahydro-5H-pyrimido[4,5-d]azepine]: ≥ 90%; for `c1cncc(CN2CCc3ncnc(N4CCN(C5CCC5)CC4)c3CC2)c1` [Compound 154, 4-(4-cyclobutylpiperazin-1-yl)-7-(pyridin-3-ylmethyl)-6,7,8,9-tetrahydro-5H-pyrimido[4,5-d]azepine]: ≥ 90%; for `c1nc2c(c(N3CCN(C4CCC4)CC3)n1)CCN(Cc1ccc(N3CCOCC3)nc1)CC2` [Compound 155, 4-(4-cyclobutylpiperazin-1-yl)-7-[(6-morpholin-4-ylpyridin-3-yl)methyl]-6,7,8,9-tetrahydro-5H-pyrimido[4,5-d]azepine]: ≥ 90%.
The value for `Cc1cc(CN2CCc3ncnc(N4CCN(C5CCC5)CC4)c3CC2)n(C)n1` [Compound 156, 4-(4-cyclobutylpiperazin-1-yl)-7-[(1,3-dimethyl-1H-pyrazol-5-yl)methyl]-6,7,8,9-tetrahydro-5H-pyrimido[4,5-d]azepine] was ≥ 90%.
Turning to `COc1ccccc1CN1CCc2ncnc(N3CCN(C4CCC4)CC3)c2CC1` [Compound 157, 4-(4-cyclobutylpiperazin-1-yl)-7-(2-methoxybenzyl)-6,7,8,9-tetrahydro-5H-pyrimido[4,5-d]azepine], the inhibition at 4 µM is ≥ 90%.
The value for `COc1ccc(CN2CCc3ncnc(N4CCN(C5CCC5)CC4)c3CC2)c(OC)c1` [Compound 158, 4-(4-cyclobutylpiperazin-1-yl)-7-(2,4-dimethoxybenzyl)-6,7,8,9-tetrahydro-5H-pyrimido[4,5-d]azepine] was ≥ 90%; that for `CC(C)c1ccc(CN2CCc3ncnc(N4CCN(C5CCC5)CC4)c3CC2)cc1` [Compound 159, 4-(4-cyclobutylpiperazin-1-yl)-7-(4-isopropylbenzyl)-6,7,8,9-tetrahydro-5H-pyrimido[4,5-d]azepine] was ≥ 90%; that for `CCN1CCc2ncnc(N3CCN(C4CCC4)CC3)c2CC1` [Compound 160, 4-(4-cyclobutylpiperazin-1-yl)-7-ethyl-6,7,8,9-tetrahydro-5H-pyrimido[4,5-d]azepine] was ≥ 90%.
The same measure for `CC(C)CCN1CCc2ncnc(N3CCN(C4CCC4)CC3)c2CC1` [Compound 161, 4-(4-cyclobutylpiperazin-1-yl)-7-(3-methylbutyl)-6,7,8,9-tetrahydro-5H-pyrimido[4,5-d]azepine]: ≥ 90%; for `CCCN1CCc2ncnc(N3CCN(C4CCC4)CC3)c2CC1` [Compound 162, 4-(4-cyclobutylpiperazin-1-yl)-7-propyl-6,7,8,9-tetrahydro-5H-pyrimido[4,5-d]azepine]: ≥ 90%; for `CCCCN1CCc2ncnc(N3CCN(C4CCC4)CC3)c2CC1` [Compound 163, 7-butyl-4-(4-cyclobutylpiperazin-1-yl)-6,7,8,9-tetrahydro-5H-pyrimido[4,5-d]azepine]: ≥ 90%.
The value for `CCCCCN1CCc2ncnc(N3CCN(C4CCC4)CC3)c2CC1` [Compound 164, 4-(4-cyclobutylpiperazin-1-yl)-7-pentyl-6,7,8,9-tetrahydro-5H-pyrimido[4,5-d]azepine] was ≥ 90%; that for `CCCCCCN1CCc2ncnc(N3CCN(C4CCC4)CC3)c2CC1` [Compound 165, 4-(4-cyclobutylpiperazin-1-yl)-7-hexyl-6,7,8,9-tetrahydro-5H-pyrimido[4,5-d]azepine] was ≥ 90%.
For `CC(C)CN1CCc2ncnc(N3CCN(C4CCC4)CC3)c2CC1` [Compound 166, 4-(4-cyclobutylpiperazin-1-yl)-7-isobutyl-6,7,8,9-tetrahydro-5H-pyrimido[4,5-d]azepine], the inhibition at 4 µM was ≥ 90%.
